Patent US12516051B1, “Small molecule degraders and fluorescent probes of PXR” (St. Jude Children's Research Hospital, Inc., priority 2024, dated 2026)
Like-named read-outs stand apart in the source and are kept apart here.

System: SNU-C4 HiBiT-PXR KI cells
Assay: Cytotoxicity, CellTiter-Glo Luminescent Cell Viability Assay
Type: cell-based
Protocol: An Echo 655T Acoustic Liquid Handler was used to dispense 75 nL/well of DMSO or PROTAC dilution into white tissue culture-treated 384-well plates. For 24 h cytotoxicity, 25 μL assay media containing 1×10^4 cells was added to each well to match the conditions for the degradation assays. For 72 h cytotoxicity, 25 μL RPMI with 10% FBS containing 2.5×10^3 cells was added to each well to match normal growth conditions. […] After 24 h or 72 h, the CellTiter-Glo Luminescent Cell Viability Assay (Promega, cat. #G7572) and an EnVision microplate reader were used to assess cytotoxicity. DMSO wells with cells served as positive controls, and wells without cells served as negative controls. The percent cell viability for each well was calculated using equation 5,

[1] = read-out: 24 h CC50, Table 3, 24 h treatment
[2] = read-out: 72 h CC50, Table 3, 72 h treatment
[3] = read-out: 24 h CC50, Table 4, 24 h treatment
[4] = read-out: 72 h CC50, Table 4, 72 h treatment

Q: `COc1cc(OCC(=O)NCCOCCOCCOCCOCC(=O)N[C@H](C(=O)N2C[C@H](O)C[C@H]2C(=O)NCc2ccc(-c3scnc3C)cc2)C(C)(C)C)c(C)cc1-n1nnc(S(=O)(=O)c2ccc(C(C)(C)C)cc2)c1C` [Compound 30, (2S,4R)-1-((S)-2-(TERT-BUTYL)-20-(4-(4-((4-(TERT-BUTYL)PHENYL)SULFONYL)-5-METHYL-1H-1,2,3-TRIAZOL-1-YL)-5-METHOXY-2-METHYLPHENOXY)-4,19-DIOXO-6,9,12,15-TETRAOXA-3,18-DIAZAICOSANOYL)-4-HYDROXY-N-(4-(4-METHYLTHIAZOL-5-YL)BENZYL)PYRROLIDINE-2-CARBOXAMIDE] was tested. Which CC50 [1] did it give?
A: Its CC50 is > 30 µM.

Q: What about the CC50 [2] of the same molecule?
A: The CC50 was > 30 µM.

Q: How did the CC50 [1] turn out when `COc1cc(OCCOCCOCCOCCOCCOCCC(=O)N[C@H](C(=O)N2C[C@H](O)C[C@H]2C(=O)NCc2ccc(-c3scnc3C)cc2)C(C)(C)C)c(C)cc1-n1nnc(S(=O)(=O)c2ccc(C(C)(C)C)cc2)c1C` [Compound 31, (2S,4R)-1-((S)-20-(TERT-BUTYL)-1-(4-(4-((4-(TERT-BUTYL)PHENYL)SULFONYL)-5-METHYL-1H-1,2,3-TRIAZOL-1-YL)-5-METHOXY-2-METHYLPHENOXY)-18-OXO-3,6,9,12,15-PENTAOXA-19-AZAHENICOSAN-21-OYL)-4-HYDROXY-N-(4-(4-METHYLTHIAZOL-5-YL)BENZYL)PYRROLIDINE-2-CARBOXAMIDE] was run?
A: Its CC50 is > 30 µM.

Q: And the CC50 [2]?
A: Its CC50 is > 30 µM.

Q: How did the CC50 [1] turn out when `COc1cc(OCCCCCCOCCCCCOCCCCCC(=O)N[C@H](C(=O)N2C[C@H](O)C[C@H]2C(=O)NCc2ccc(-c3scnc3C)cc2)C(C)(C)C)c(C)cc1-n1nnc(S(=O)(=O)c2ccc(C(C)(C)C)cc2)c1C` [Compound 32, (2S,4R)-1-((S)-2-(6-((5-((6-(4-(4-((4-(tert-Butyl)phenyl)sulfonyl)-5-methyl-1H-1,2,3-triazol-1-yl)-5-methoxy-2-methylphenoxy)hexyl)oxy)pentyl)oxy)hexanamido)-3,3-dimethylbutanoyl)-4-hydroxy-N-(4-(4-methylthiazol-5-yl)benzyl)pyrrolidine-2-carboxamide] was run?
A: The CC50 was > 30 µM.

Q: And the CC50 [2]?
A: Its CC50 is > 30 µM.

Q: With `COc1cc(OCCCCCCOCCOCCOCCCCCC(=O)N[C@H](C(=O)N2C[C@H](O)C[C@H]2C(=O)NCc2ccc(-c3scnc3C)cc2)C(C)(C)C)c(C)cc1-n1nnc(S(=O)(=O)c2ccc(C(C)(C)C)cc2)c1C` [Compound 33, (2S,4R)-1-((S)-2-(tert-Butyl)-22-(4-(4-((4-(tert-butyl)phenyl)sulfonyl)-5-methyl-1H-1,2,3-triazol-1-yl)-5-methoxy-2-methylphenoxy)-4-oxo-10,13,16-trioxa-3-azadocosanoyl)-4-hydroxy-N-(4-(4-methylthiazol-5-yl)benzyl)pyrrolidine-2-carboxamide] as the molecule, how does the CC50 [1] read?
A: The CC50 was > 30 µM.

Q: And the CC50 [2]?
A: Its CC50 is > 30 µM.

Q: For `COc1cc(OCCCCCCOCCOCCOCCOCCOCCOCC(=O)N[C@H](C(=O)N2C[C@H](O)C[C@H]2C(=O)NCc2ccc(-c3scnc3C)cc2)C(C)(C)C)c(C)cc1-n1nnc(S(=O)(=O)c2ccc(C(C)(C)C)cc2)c1C` [Compound 34, (2S,4R)-1-((S)-2-(tert-Butyl)-27-(4-(4-((4-(tert-butyl)phenyl)sulfonyl)-5-methyl-1H-1,2,3-triazol-1-yl)-5-methoxy-2-methylphenoxy)-4-oxo-6,9,12,15,18,21-hexaoxa-3-azaheptacosanoyl)-4-hydroxy-N-(4-(4-methylthiazol-5-yl)benzyl)pyrrolidine-2-carboxamide], which CC50 [1] is on record?
A: The CC50 was > 30 µM.

Q: And the CC50 [2]?
A: The CC50 was > 30 µM.

Q: How did the CC50 [3] turn out when `CCCCOc1ccc(C(C)(C)C)cc1NC(=O)c1nnn(-c2cc(C)c(OCCCCCCOCCOCC(=O)N[C@H](C(=O)N3C[C@H](O)C[C@H]3C(=O)NCc3ccc(-c4scnc4C)cc3)C(C)(C)C)cc2OC)c1C` [Compound 35, N-(2-Butoxy-5-(tert-butyl)phenyl)-1-(4-((6-(2-(2-(((S)-1-((2S,4R)-4-hydroxy-2-((4-(4-methylthiazol-5-yl)benzyl)carbamoyl)pyrrolidin-1-yl)-3,3-dimethyl-1-oxobutan-2-yl)amino)-2-oxoethoxy)ethoxy)hexyl)oxy)-2-methoxy-5-methylphenyl)-5-methyl-1H-1,2,3-triazole-4-carboxamide] was run?
A: Its CC50 is > 30 µM.

Q: And the CC50 [4]?
A: Its CC50 is > 30 µM.

Q: What does the source list for `CCC[C@H](CC)Oc1ccc(C(C)(C)C)cc1NC(=O)c1nnn(-c2cc(C)c(OCCCCCCOCCOCC(=O)N[C@H](C(=O)N3C[C@H](O)C[C@H]3C(=O)NCc3ccc(-c4scnc4C)cc3)C(C)(C)C)cc2OC)c1C` [Compound 36]?
A: CC50 [3]: > 30 µM; CC50 [4]: > 30 µM

Q: Which results are given for `CCC[C@H](CC)Oc1ccc(C(C)(C)C)cc1NC(=O)c1nnn(-c2cc(OC)c(OCCCCCCOCCOCC(=O)N[C@H](C(=O)N3C[C@H](O)C[C@H]3C(=O)NCc3ccc(-c4scnc4C)cc3)C(C)(C)C)cc2OC)c1C` [Compound 37, N-(5-(TERT-BUTYL)-2-(((S)-HEXAN-3-YL)OXY)PHENYL)-1-(4-((6-(2-(2-(((S)-1-((2S,4R)-4-HYDROXY-2-((4-(4 METHYLTHIAZOL-5-YL)BENZYL)CARBAMOYL)PYRROLIDIN-1-YL)-3,3-DIMETHYL-1-OXOBUTAN-2-YL)AMINO)-2 OXOETHOXY)ETHOXY)HEXYL)OXY)-2,5-DIMETHOXYPHENYL)-5-METHYL-1H-1,2,3-TRIAZOLE-4-CARBOXAMIDE]?
A: CC50 [3]: > 30 µM; CC50 [4]: > 30 µM

Q: Which results are given for `CCC[C@H](CC)Oc1ccc(C(=O)OC)cc1NC(=O)c1nnn(-c2cc(OC)c(OCCCCCCOCCOCC(=O)N[C@H](C(=O)N3C[C@H](O)C[C@H]3C(=O)NCc3ccc(-c4scnc4C)cc3)C(C)(C)C)cc2OC)c1C` [Compound 38, METHYL 4-(((S)-HEXAN-3-YL)OXY)-3-(1-(4-((6-(2-(2-(((S)-1-((2S,4R)-4-HYDROXY-2-((4-(4-METHYLTHIAZOL-5-YL)BENZYL)CARBAMOYL)PYRROLIDIN-1-YL)-3,3-DIMETHYL-1-OXOBUTAN-2-YL)AMINO)-2-OXOETHOXY)ETHOXY)HEXYL)OXY)-2,5-DIMETHOXYPHENYL)-5-METHYL-1H-1,2,3-TRIAZOLE-4-CARBOXAMIDO)BENZOATE]?
A: CC50 [3]: > 30 µM; CC50 [4]: > 30 µM
